Laboratory results published in patent publication US20220257698A1, “ANGIOTENSIN TYPE 2 (AT2) RECEPTOR AGONISTS FOR USE IN THE TREATMENT OF CANCER” (LANTHIOPEP B.V., priority 2019, published 2022).

Experiments:
[1] = tested on: colon carcinoma PDX model Co9689A; test: KcAng(1-7) on growth of colon carcinoma PDX Co9689A in mice; type: in vivo, NMRI nu/nu mice (human PDX); conditions: for T/C (treated tumor volume as percent of vehicle control): day 28 (day 41 of study)
Experimental: In vivo studies were conducted at EPO GmbH Berlin. Large studies (FIG. 1A, 2, 3, 4, 5) comprised 3 groups of 10 mice/group and 5 animals as reserve, as outlined in Table 1. Smaller studies (FIG. 1B, 1C, 1D) comprised 2 groups of mice of 3 mice per group. The animals were allocated to the various treatment groups (e.g. 0.2 μg/kg and 30 μg/kg) with a maximum of 10 animals per group. […] The groups received subcutaneous (s.c.) drug injection (for max. 28 days) as outlined in the Table 1.
NMRI nu/nu mice were used in this study. The animals were female at age of 6 to 8 weeks. The respective PDX tumors were inoculated subcutaneously (s.c.), and the tumors were grown to achieve palpable tumor sizes before start of the respective treatments. The PDX included breast (MaCa4151), colon (Co9689A), head & neck (HN10309), lung (Lu7433) and ovarian (OvCa13329) cancer (Table 2).
Treatment with KcAng(1-7) was started with palpable tumors after the randomization of animals regarding tumor volume. KcAng(1-7) was applied s.c. by daily injections at […] or 30 μg/kg dose for a maximum of 28 days (or earlier as defined by the humane end point for the study).
KcAng(1-7) was prepared as follows: The compounds was suspended in sterile PBS resulting in a clear solution. The remains of this formulation were stored at 4° C.
Tumor growth stimulatory or inhibitory activity of the KcAng(1-7) was evaluated by determination of tumor volumes (TV). During the study, tumor volumes and body weight were measured twice a week, and the ratio of the mean tumor volumes between the compound-treated group and the vehicle-treated group (T/C) was calculated.
Tumor volume=(tumor width)×(tumor width)×(tumor length)+2
T/C=T÷C • T: Mean estimated tumor volume of the compound-treated group • C: Mean estimated tumor volume of the vehicle-treated group

U251MG glioblastoma CDX = test: Tumor hemoglobin level (indirect angiogenesis) in U251MG CDX; type: in vivo, cd1 nu/nu mice (human GBM cell line); conditions: KcAng(1-7) 1 μg/kg/d, Losartan 20 mg/kg/d, or both
Experimental: Efficacy of treatment was evaluated by: […] In brief, tumors were homogenized in double-distilled water. Eighty microliters of homogenates were mixed with 1 mL of Drabkin's solution and incubated for 15 min at room temperature. After centrifugation at 400×g for 5 min, the supernatants were subjected to absorbance measurement at 540 nm. The absorption, which is proportional to hemoglobin concentration, was divided by tumor weight. Effect of KcAng(1-7) and Losartan against heterotopic U251MG cell culture-based xenografts (CDX) in mice. Animals were treated either with vehicle, treated with 20 mg/kg/d Losartan, treated with 1 μ[…](1-7) or treated with a combination of KcAng(1-7) and with Losartan.

[2] = Gr. B 0.2 μg/kg/d s.c., Meas. 1
[3] = Gr. B 0.2 μg/kg/d s.c., Meas. 2
[4] = Gr. B 0.2 μg/kg/d s.c., Meas. 3
[5] = Gr. B 0.2 μg/kg/d s.c., Meas. 4
[6] = Gr. B 0.2 μg/kg/d s.c., Meas. 5
[7] = Gr. B 0.2 μg/kg/d s.c., Meas. 6
[8] = Gr. B 0.2 μg/kg/d s.c., Meas. 7
[9] = Gr. B 0.2 μg/kg/d s.c., Meas. 8
[10] = Gr. B 0.2 μg/kg/d s.c., Meas. 9 (day 28, day 41 of study)
[11] = Gr. C 30 μg/kg/d s.c., Meas. 9 (day 28, day 41 of study)

With “Lys-Asp-Arg-Val-Abu/Ala-Ile-His-Abu/Ala (KDRVAIHA; not fully specified; cyclic thioether (Abu/Ala bridge); VARIANT (5)..(5) /replace=“Abu”; VARIANT (8)..(8) /replace=“Abu”; SITE (1)..(8) /note=“Variant residues given in the sequence have no preference with respect to those in the annotations for variant positions”) [KcAng(1-7)]” the “T/C (treated tumor volume as percent of vehicle control)” value ([1]; 0.2 μg/kg) was 58%, the “T/C (treated tumor volume as percent of vehicle control)” value ([1]; 30 μg/kg) was 45% and the “effect on tumor growth” value ([1]; 0.2 and 30 μg/kg, 28 days) was “statistically significant and dose dependent reduction in tumor growth”. For the same substance, the “RTV Mean” value [1, 2] was 1, the “RTV Median” value [1, 2] was 1 and the T/C [1, 2] was 99.5%. For the same substance, the “Tumor Vol. Mean” value [1, 2] was 0.093 cm^3, the “Tumor Vol. Median” value [1, 2] was 0.09 cm^3 and the “RTV Mean” value [1, 3] was 1.2. The “RTV Median” value [1, 3] was 1.2, the T/C [1, 3] was 90.3% and the “Tumor Vol. Mean” value [1, 3] was 0.107 cm^3. For the same substance, the “Tumor Vol. Median” value [1, 3] was 0.108 cm^3, the “RTV Mean” value [1, 4] was 1.4 and the “RTV Median” value [1, 4] was 1.4. For the same substance, the T/C [1, 4] was 87.4%, the “Tumor Vol. Mean” value [1, 4] was 0.132 cm^3 and the “Tumor Vol. Median” value [1, 4] was 0.126 cm^3. For the same substance, the “RTV Mean” value [1, 5] was 2, the “RTV Median” value [1, 5] was 1.9 and the T/C [1, 5] was 87.1%. For the same substance, the “Tumor Vol. Mean” value [1, 5] was 0.188 cm^3, the “Tumor Vol. Median” value [1, 5] was 0.139 cm^3 and the “RTV Mean” value [1, 6] was 2.7. The “RTV Median” value [1, 6] was 2.6, the T/C [1, 6] was 84.6% and the “Tumor Vol. Mean” value [1, 6] was 0.252 cm^3. For the same substance, the “Tumor Vol. Median” value [1, 6] was 0.234 cm^3, the “RTV Mean” value [1, 7] was 2.8 and the “RTV Median” value [1, 7] was 2.7. The T/C [1, 7] was 80.7%, the “Tumor Vol. Mean” value [1, 7] was 0.267 cm^3 and the “Tumor Vol. Median” value [1, 7] was 0.238 cm^3. The “RTV Mean” value [1, 8] was 3.2, the “RTV Median” value [1, 8] was 2.8 and the T/C [1, 8] was 71.6%. The “Tumor Vol. Mean” value [1, 8] was 0.272 cm^3, the “Tumor Vol. Median” value [1, 8] was 0.214 cm^3 and the “RTV Mean” value [1, 9] was 2. For the same substance, the “RTV Median” value [1, 9] was 1.9, the T/C [1, 9] was 58.6% and the “Tumor Vol. Mean” value [1, 9] was 0.192 cm^3. The “Tumor Vol. Median” value [1, 9] was 0.178 cm^3, the “RTV Mean” value [1, 10] was 2.7 and the “RTV Median” value [1, 10] was 2.5. The T/C [1, 10] was 58.1%, the “Tumor Vol. Mean” value [1, 10] was 0.257 cm^3 and the “Tumor Vol. Median” value [1, 10] was 0.219 cm^3. The “RTV Mean” value ([1]; Gr. C 30 μg/kg/d s.c., Meas. 1) was 1, the “RTV Median” value ([1]; Gr. C 30 μg/kg/d s.c., Meas. 1) was 1 and the T/C ([1]; Gr. C 30 μg/kg/d s.c., Meas. 1) was 99.5%. For the same substance, the “Tumor Vol. Mean” value ([1]; Gr. C 30 μg/kg/d s.c., Meas. 1) was 0.093 cm^3, the “Tumor Vol. Median” value ([1]; Gr. C 30 μg/kg/d s.c., Meas. 1) was 0.097 cm^3 and the “RTV Mean” value ([1]; Gr. C 30 μg/kg/d s.c., Meas. 2) was 1.2. For the same substance, the “RTV Median” value ([1]; Gr. C 30 μg/kg/d s.c., Meas. 2) was 1.2, the T/C ([1]; Gr. C 30 μg/kg/d s.c., Meas. 2) was 91.5% and the “Tumor Vol. Mean” value ([1]; Gr. C 30 μg/kg/d s.c., Meas. 2) was 0.108 cm^3. For the same substance, the “Tumor Vol. Median” value ([1]; Gr. C 30 μg/kg/d s.c., Meas. 2) was 0.105 cm^3, the “RTV Mean” value ([1]; Gr. C 30 μg/kg/d s.c., Meas. 3) was 1.3 and the “RTV Median” value ([1]; Gr. C 30 μg/kg/d s.c., Meas. 3) was 1.3. The T/C ([1]; Gr. C 30 μg/kg/d s.c., Meas. 3) was 80.9%, the “Tumor Vol. Mean” value ([1]; Gr. C 30 μg/kg/d s.c., Meas. 3) was 0.122 cm^3 and the “Tumor Vol. Median” value ([1]; Gr. C 30 μg/kg/d s.c., Meas. 3) was 0.111 cm^3. The “RTV Mean” value ([1]; Gr. C 30 μg/kg/d s.c., Meas. 4) was 1.7, the “RTV Median” value ([1]; Gr. C 30 μg/kg/d s.c., Meas. 4) was 1.5 and the T/C ([1]; Gr. C 30 μg/kg/d s.c., Meas. 4) was 72.1%. For the same substance, the “Tumor Vol. Mean” value ([1]; Gr. C 30 μg/kg/d s.c., Meas. 4) was 0.156 cm^3, the “Tumor Vol. Median” value ([1]; Gr. C 30 μg/kg/d s.c., Meas. 4) was 0.125 cm^3 and the “RTV Mean” value ([1]; Gr. C 30 μg/kg/d s.c., Meas. 5) was 2.2. The “RTV Median” value ([1]; Gr. C 30 μg/kg/d s.c., Meas. 5) was 2.3, the T/C ([1]; Gr. C 30 μg/kg/d s.c., Meas. 5) was 68.6% and the “Tumor Vol. Mean” value ([1]; Gr. C 30 μg/kg/d s.c., Meas. 5) was 0.205 cm^3. The “Tumor Vol. Median” value ([1]; Gr. C 30 μg/kg/d s.c., Meas. 5) was 0.184 cm^3, the “RTV Mean” value ([1]; Gr. C 30 μg/kg/d s.c., Meas. 6) was 2.5 and the “RTV Median” value ([1]; Gr. C 30 μg/kg/d s.c., Meas. 6) was 2.4. For the same substance, the T/C ([1]; Gr. C 30 μg/kg/d s.c., Meas. 6) was 72.5%, the “Tumor Vol. Mean” value ([1]; Gr. C 30 μg/kg/d s.c., Meas. 6) was 0.24 cm^3 and the “Tumor Vol. Median” value ([1]; Gr. C 30 μg/kg/d s.c., Meas. 6) was 0.199 cm^3. For the same substance, the “RTV Mean” value ([1]; Gr. C 30 μg/kg/d s.c., Meas. 7) was 3, the “RTV Median” value ([1]; Gr. C 30 μg/kg/d s.c., Meas. 7) was 2.8 and the T/C ([1]; Gr. C 30 μg/kg/d s.c., Meas. 7) was 75.6%. The “Tumor Vol. Mean” value ([1]; Gr. C 30 μg/kg/d s.c., Meas. 7) was 0.287 cm^3, the “Tumor Vol. Median” value ([1]; Gr. C 30 μg/kg/d s.c., Meas. 7) was 0.213 cm^3 and the “RTV Mean” value ([1]; Gr. C 30 μg/kg/d s.c., Meas. 8) was 2.2. The “RTV Median” value ([1]; Gr. C 30 μg/kg/d s.c., Meas. 8) was 1.9, the T/C ([1]; Gr. C 30 μg/kg/d s.c., Meas. 8) was 63.3% and the “Tumor Vol. Mean” value ([1]; Gr. C 30 μg/kg/d s.c., Meas. 8) was 0.208 cm^3. For the same substance, the “Tumor Vol. Median” value ([1]; Gr. C 30 μg/kg/d s.c., Meas. 8) was 0.155 cm^3, the “RTV Mean” value [1, 11] was 2.1 and the “RTV Median” value [1, 11] was 1.8. The T/C [1, 11] was 45.3%, the “Tumor Vol. Mean” value [1, 11] was 0.201 cm^3 and the “Tumor Vol. Median” value [1, 11] was 0.134 cm^3. For the same substance, the retarded tumor growth ([1]; colon carcinoma PDX upon treatment as in Example 1) was ~40% and the “Tumor hemoglobin level, mean (± SEM)” value (U251MG glioblastoma CDX) was 18.7 ± 2.1 mg Hb/g of tissue.
